Results on 29 compounds are retold here after patent US11274082B2, “Tead inhibitors and uses thereof” (Ikena Oncology, Inc., priority 2019, dated 2022).

One assay concerns TEAD. Nature of the assay: TEAD reporter assay (Hippo Pathway TEAD Reporter - MCF7 cell line, luciferase). The class given is cell-based. The following applies: Homo sapiens. The text has this:
TEAD inhibition can be assayed using Hippo Pathway TEAD Reporter—MCF7 Cell Line (BPS Bioscience, Catalog #: 60618).
The TEAD Reporter—MCF7 cell line contains the firefly luciferase gene under the control of TEAD responsive elements stably integrated into the human breast cancer cell line, MCF7. Inside the cells, basal unphosphorylated YAP/TAZ remains in the nucleus and induces the constitutive expression of luciferase reporter. The cell line is validated for the inhibition of the expression of luciferase reporter by the activators of the Hippo pathway.
• 1) Harvest TEAD Reporter—MCF7 cells from culture in growth medium and seed cells at a density of 35,000 cells per well into white clear-bottom 96-well microplate in 45 μl of assay medium. • 2) Incubate cells at 37° C. in a CO2 incubator for overnight. • 3) Dilute the activators (H2O2 or okadaic acid) stock in assay medium. Add 5 μl of diluted activators to the wells. The final concentration of DMSO in assay medium is 0.1%. • 4) Add 5 μl of assay medium with same concentration of DMSO without activator to control wells. • 5) Add 50 μl of assay medium with DMSO to cell-free control wells (for determining background luminescence). • 6) Set up each treatment in at least triplicate. • 7) Incubate cells at 37° C. in a CO2 incubator for 5-6 hours. • 8) Perform luciferase assay using the ONE-Step™ Luciferase Assay System following the protocol provided: Add 100 μl of ONE-Step™ Luciferase reagent per well and rock at room temperature for ˜15 minutes. Measure luminescence using a luminometer. • 9) Data Analysis: Obtain the background-subtracted luminescence by subtracting the average background luminescence (cell-free control wells) from the luminescence reading of all wells.
(§1) Certain compounds were tested in TEAD reporter assay, and in H226 and H28. A: EC50<0.1 uM; B: 0.1 uM≤EC50≤0.5 uM; C: EC50>0.5 uM.

Another assay concerns H226. Nature of the assay: Anti-proliferation assay in H226 cells. The class given is cell-based. The following applies: Homo sapiens. As to the method:
as §1
Individual cell lines were grown in medium according to supplier instructions and seeded into 96-well plates at a density that ensured logarithmic growth over 72 hours. TEAD inhibitor compounds were administered to cells at a top concentration of 10 μm and subsequently a 10 point 3-fold serial dilution was conducted. After 72 hours, proliferation was quantified using Cell TITERGLO™ (Promega, Inc.) and compared to vehicle control. IC50 and EC50 values were generated using XLFit curve fitting software.

Where [1] appears, read: TEAD Reporter - MCF7 cells, read-out: TEAD Reporter Assay EC50.
[2] abbreviates: NCI-H226, H226 cells, read-out: H226 EC50.

Like-named read-outs stand apart in the source and are kept apart here.

The EC50 is the concentration at which the effect is half-maximal. In the case of `CNS(=O)(=O)c1ccc(Nc2ccc(C(F)(F)F)nn2)c(-c2cn(C)cn2)c1` [I-77, N-Methyl-3-(1-methylimidazol-4-yl)-4-[[6-(trifluoromethyl)pyridazin-3-yl]amino]benzenesulfonamide], the EC50 was over 0.5 µM in the assay on TEAD (setting [1]) and 0.1 to 0.5 µM with H226 (setting [2]).
On the same counts, the results for `CNS(=O)(=O)c1ccc(N[C@H](CO)c2ccccc2)c(-c2cn(C)cn2)c1` [I-40, 4-[[(1S)-2-Hydroxy-1-phenyl-ethyl]amino]-N-methyl-3-(1-methylimidazol-4-yl)benzenesulfonamide] are over 0.5 µM and over 0.5 µM.
Take `CNS(=O)(=O)c1ccc(NCc2ccc(OC(F)(F)F)cc2)c(-c2cn(C)cn2)c1` [I-60, N-Methyl-3-(1-methyl-1H-imidazol-4-yl)-4-((4-(trifluoromethoxy)benzyl)amino)benzenesulfonamide]: the EC50 in the assay on TEAD (setting [1]) and in the assay on H226 (setting [2]) was 0.1 to 0.5 µM throughout.
Take `CNS(=O)(=O)c1ccc(N[C@H]2CCc3ccccc32)c(-c2cn(C)cn2)c1` (single isomer, unassigned) [I-58]: the EC50 with TEAD (setting [1]) and in the assay with H226 (setting [2]) was over 0.5 µM each time.
As for `Cn1cnc(-c2cc(S(N)(=O)=O)ccc2NCc2ccccc2)c1` [I-42, 4-(Benzylamino)-3-(1-methylimidazol-4-yl)benzenesulfonamide], the EC50 in the assay with TEAD (setting [1]) is over 0.5 µM; with H226 (setting [2]) it was 0.1 to 0.5 µM.
On to `CNS(=O)(=O)c1ccc(Nc2ccc(C(F)(F)F)cn2)c(-c2cn(Cc3ccccc3F)cn2)c1` [I-81, 3-[1-[(2-Fluorophenyl)methyl]imidazol-4-yl]-N-methyl-4-[[5-(trifluoromethyl)-2-pyridyl]amino]benzenesulfonamide], for which the EC50 in the assay with TEAD (setting [1]) and in the assay on H226 (setting [2]) was under 0.1 µM in each case.
`CNS(=O)(=O)c1ccc(Oc2cccc(C(F)(F)F)c2)c(-c2cn(C)cn2)c1` [I-22, Y-Methyl-3-(1-methyl-1H-imidazol-4-yl)-4-(3-(trifluoromethyl)phenoxy)benzenesulfonamide]: the EC50 in the assay with TEAD (setting [1]) and in the assay with H226 (setting [2]) was over 0.5 µM in each case.
Take `CNS(=O)(=O)c1ccc(Nc2cc(C(F)(F)F)ccn2)c(-c2cn(C(C)C)cn2)c1` [I-55, 3-(1-Isopropylimidazol-4-yl)-N-methyl-4-[[4-(trifluoromethyl)-2-pyridyl]amino]benzenesulfonamide]: the results for the EC50 in the assay on TEAD (setting [1]) and with H226 (setting [2]) were 0.1 to 0.5 µM and under 0.1 µM, respectively.
The corresponding values for `CNS(=O)(=O)c1ccc(Nc2ccc(C(F)(F)F)cc2)c(-c2cn(C)cn2)c1` [I-82, N-Methyl-3-(1-methyl-1H-imidazol-4-yl)-4-((4-(trifluoromethyl)phenyl)amino)benzenesulfonamide] are under 0.1 µM and under 0.1 µM.
Take `CNS(=O)(=O)c1ccc(N[C@@H](C)c2ccc(C(F)(F)F)cc2)c(-c2cn(C)cn2)c1` [I-57, N-Methyl-3-(1-methylimidazol-4-yl)-4-[[(1S)-1-[4-(trifluoromethyl)phenyl]ethyl]amino]benzenesulfonamide]: the EC50 in the assay on TEAD (setting [1]) and with H226 (setting [2]) was over 0.5 µM in each case.
As for `CNS(=O)(=O)c1ccc(NCc2ccccc2C(F)(F)F)c(-c2cn(C)cn2)c1` [I-74, N-Methyl-3-(1-methylimidazol-4-yl)-4-[[2-(trifluoromethyl)phenyl]methylamino]benzenesulfonamide], the half-maximal effective concentration (EC50) with TEAD (setting [1]) and in the assay with H226 (setting [2]) was under 0.1 µM each time.
`Cn1cnc(-c2cc(S(C)(=O)=O)ccc2Nc2cc(C(F)(F)F)ccn2)c1` [I-48, N-[2-(1-Methylimidazol-4-yl)-4-methylsulfonyl-phenyl]-4-(trifluoromethyl)pyridin-2-amine]: the EC50 was over 0.5 µM in the assay with TEAD (setting [1]) and 0.1 to 0.5 µM with H226 (setting [2]).
On the same counts, the results for `Cn1cnc(-c2cc(S(C)(=O)=O)ccc2NCc2ccccc2)c1` [I-44, N-Benzyl-2-(1-methylimidazol-4-yl)-4-methylsulfonyl-aniline] are over 0.5 µM and 0.1 to 0.5 µM.
On to `CNS(=O)(=O)c1ccc(N[C@H](C)c2ccc(C(F)(F)F)cc2)c(-c2cn(C)cn2)c1` [I-56, N-Methyl-3-(1-methylimidazol-4-yl)-4-[[(1R)-1-[4-(trifluoromethyl)phenyl]ethyl]amino]benzenesulfonamide], for which the concentration giving a half-maximal response (EC50) in the assay with TEAD (setting [1]) and in the assay with H226 (setting [2]) was 0.1 to 0.5 µM throughout.
Turning to `CNS(=O)(=O)c1ccc(NCc2ccc3c(c2)OCO3)c(-c2cn(C)cn2)c1` [I-64, 4-(1,3-Benzodioxol-5-ylmethylamino)-N-methyl-3-(1-methylimidazol-4-yl)benzenesulfonamide], the EC50 in the assay with TEAD (setting [1]) and with H226 (setting [2]) was 0.1 to 0.5 µM in each case.
Consider `CNS(=O)(=O)c1ccc(Nc2cccc(C(F)(F)F)c2)c(C(C)=O)c1` [I-23, 3-acetyl-N-methyl-4-[3-(trifluoromethyl)anilino]benzenesulfonamide], for which the EC50 in the assay on TEAD (setting [1]) and in the assay on H226 (setting [2]) was over 0.5 µM each time.
On to `CNS(=O)(=O)c1ccc(Nc2ncc(C(F)(F)F)cn2)c(-c2cn(C)cn2)c1` [I-78, N-Methyl-3-(1-methylimidazol-4-yl)-4-[[5-(trifluoromethyl)pyrimidin-2-yl]amino]benzenesulfonamide], for which the EC50 with TEAD (setting [1]) and in the assay on H226 (setting [2]) was under 0.1 µM in each case.
For `CNS(=O)(=O)c1ccc(Nc2ccc(C(F)(F)F)cn2)c(-c2cn(C3CCC3)cn2)c1` [I-67, 3-(1-Cyclobutylimidazol-4-yl)-N-methyl-4-[[5-(trifluoromethyl)-2-pyridyl]amino]benzenesulfonamide], the EC50 in the assay on TEAD (setting [1]) and in the assay on H226 (setting [2]) was under 0.1 µM throughout.
Take `CNS(=O)(=O)c1ccc(NCc2cccc(OC(F)(F)F)c2)c(-c2cn(C)cn2)c1` [I-69, A-Methyl-3-(1-methylimidazol-4-yl)-4-[[3-(trifluoromethoxy)phenyl]methylamino]benzenesulfonamide]: the figures for the EC50 in the assay with TEAD (setting [1]) and in the assay on H226 (setting [2]) were 0.1 to 0.5 µM and under 0.1 µM, respectively.
With `CNS(=O)(=O)c1ccc(Nc2ccc(C3CC3)cn2)c(-c2cn(C)cn2)c1` [I-79, 4-[(5-Cyclopropyl-2-pyridyl)amino]-N-methyl-3-(1-methylimidazol-4-yl)benzenesulfonamide], the EC50 in the assay with TEAD (setting [1]) was 0.1 to 0.5 µM; in the assay with H226 (setting [2]), under 0.1 µM.
On the same counts, the results for `CNS(=O)(=O)c1ccc(N[C@H]2CCCc3ccccc32)c(-c2cn(C)cn2)c1` [I-52, N-Methyl-3-(1-methylimidazol-4-yl)-4-[[(1S)-tetralin-1-yl]amino]benzenesulfonamide] are over 0.5 µM and over 0.5 µM.
Take `CNS(=O)(=O)c1ccc(NC(=O)c2ccccc2)c(-c2cn(C)cn2)c1` [I-29, N-[2-(1-Methylimidazol-4-yl)-4-(methylsulfamoyl)phenyl]benzamide]: the 50% effective concentration (EC50) is over 0.5 µM with TEAD (MCF7, read-out: TEAD Reporter Assay EC50 (uM)) and over 0.5 µM in the assay on H226 (NCI-H226, read-out: H226 EC50 (uM)).
As for `CNS(=O)(=O)c1ccc(Nc2ccc(C(C)(C)C)cn2)c(-c2cn(C)cn2)c1` [I-80, 4-[(5-tert-Butyl-2-pyridyl)amino]-N-methyl-3-(1-methylimidazol-4-yl)benzenesulfonamide], the EC50 in the assay on TEAD (setting [1]) and in the assay on H226 (setting [2]) was under 0.1 µM throughout.
Regarding `CNS(=O)(=O)c1ccc(Oc2cccc(C(F)(F)F)c2)c(-c2cnc(C)[nH]2)c1` [I-19, N-Methyl-3-(2-methyl-1H-imidazol-5-yl)-4-[3-(trifluoromethyl)phenoxy]benzenesulfonamide], in the assay on H226 (setting [2]), the EC50 is over 0.5 µM.
Same read-out and setting: then `CNS(=O)(=O)c1ccc(Oc2cccc(C(F)(F)F)c2)c(-c2cc(C)n[nH]2)c1` [I-20, N-methyl-3-(3-methyl-1H-pyrazol-5-yl)-4-[3-(trifluoromethyl)phenoxy]benzenesulfonamide], with over 0.5 µM; and `CNS(=O)(=O)c1ccc(Oc2cccc(C(F)(F)F)c2)c(B(O)O)c1` [I-18, [5-(methylsulfamoyl)-2-[3-(trifluoromethyl)phenoxy]phenyl]boronic acid], with over 0.5 µM.
Still for that read-out and setting: then `CNS(=O)(=O)c1ccc(Nc2ccc(C(F)(F)F)cn2)c(-c2cn(C3CC3)cn2)c1` [I-87, 3-(1-Cyclopropylimidazol-4-yl)-N-methyl-4-[[5-(trifluoromethyl)-2-pyridyl]amino]benzenesulfonamide], with under 0.1 µM.
As for `CNS(=O)(=O)c1ccc(Oc2cccc(C(F)(F)F)c2)c(-c2nc(C)c[nH]2)c1` [I-25, N-Methyl-3-(4-methyl-1H-imidazol-2-yl)-4-[3-(trifluoromethyl)phenoxy]benzenesulfonamide], the EC50 in the assay with TEAD (setting [1]) is over 0.5 µM.
For the compound `CNS(=O)(=O)c1ccc(Nc2cccc(C(F)(F)F)c2)c(C(=O)N(C)OC)c1` [I-21, N-methoxy-N-methyl-5-(methylsulfamoyl)-2-[3-(trifluoromethyl)anilino]benzamide], the concentration for a half-maximal effect (EC50) in the assay on H226 (setting [2]) is over 0.5 µM.
